Experimental data reported in publication PMC5218480 (PLoS ONE, 2017).

Test system: MV-4-11 cells
Assay: Gene expression microarray analysis (Affymetrix PrimeView) and GSEA
Assay type: cell-based, human
Set-up: RFU PODN (11730768_x_at) / Fold change /veh PODN (11730768_x_at) / RFU LINC00158 (11744669_a_at) / Fold change /veh LINC00158 (11744669_a_at) / RFU DUSP10 (11751237_a_at) / Fold change /veh DUSP10 (11751237_a_at) / RFU ID3 (11757404_x_at) / Fold change /veh ID3 (11757404_x_at) / RFU PLEKHG5 (11737974_s_at) / Fold change /veh PLEKHG5 (11737974_s_at) / RFU LRRC4B (11730491_at) / Fold change /veh LRRC4B (11730491_at) / RFU GIMAP4 (11747438_a_at) / Fold change /veh GIMAP4 (11747438_a_at) / RFU KRT8 (11758183_x_at) / Fold change /veh KRT8 (11758183_x_at) / RFU CNN1 (11734310_a_at) / Fold change /veh CNN1 (11734310_a_at) / RFU VPS37D (11726825_at) / Fold change /veh VPS37D (11726825_at) / RFU C10orf10 (11716522_x_at) / Fold change /veh C10orf10 (11716522_x_at) / RFU KIR2DL2 /// KIR2DL4 /// KIR2DL5A /// KIR2DL5B /// KIR2DS1 /// KIR2DS2 /// KIR2DS3 /// KIR2DS4 /// KIR3DL3 /// KIR3DL3 /// KIR3DS1 (11738374_at) / Fold change /veh KIR2DL2 /// KIR2DL4 /// KIR2DL5A /// KIR2DL5B /// KIR2DS1 /// KIR2DS2 /// KIR2DS3 /// KIR2DS4 /// KIR3DL3 /// KIR3DL3 /// KIR3DS1 (11738374_at) / RFU C1QL1 (11718748_at) / Fold change /veh C1QL1 (11718748_at) / RFU TMPRSS4 (11747572_a_at) / Fold change /veh TMPRSS4 (11747572_a_at) / RFU HAMP (11756126_x_at) / Fold change /veh HAMP (11756126_x_at) / RFU RNFT2 (11725882_a_at) / Fold change /veh RNFT2 (11725882_a_at) / RFU NR4A2 (11747474_a_at) / Fold change /veh NR4A2 (11747474_a_at) / RFU ABCC12 (11746883_a_at) / Fold change /veh ABCC12 (11746883_a_at) / RFU TMEM136 (11760407_x_at) / Fold change /veh TMEM136 (11760407_x_at) / RFU CLDN22 /// WWC2 (11732394_at) / Fold change /veh CLDN22 /// WWC2 (11732394_at) / RFU HLA-DPB1 (11760878_x_at) / Fold change /veh HLA-DPB1 (11760878_x_at) / RFU SPINT1 (11716480_a_at) / Fold change /veh SPINT1 (11716480_a_at) / RFU GAP43 (11754022_s_at) / Fold change /veh GAP43 (11754022_s_at) / RFU A4GNT (11735810_at) / Fold change /veh A4GNT (11735810_at) / RFU PRB3 (11715151_x_at) / Fold change /veh PRB3 (11715151_x_at) / RFU TUBB4B (11761932_at) / Fold change /veh TUBB4B (11761932_at) / RFU CAPN14 (11732068_a_at) / Fold change /veh CAPN14 (11732068_a_at) / RFU TMCC2 (11721928_a_at) / Fold change /veh TMCC2 (11721928_a_at) / RFU IRGQ (11745062_a_at) / Fold change /veh IRGQ (11745062_a_at) / RFU FAM174B (11720279_a_at) / Fold change /veh FAM174B (11720279_a_at) / RFU TMPRSS4 (11748680_a_at) / Fold change /veh TMPRSS4 (11748680_a_at) / RFU FAM212B (11763350_a_at) / Fold change /veh FAM212B (11763350_a_at) / RFU PLEKHG5 (11743358_a_at) / Fold change /veh PLEKHG5 (11743358_a_at) / RFU ZSCAN30 (11745921_a_at) / Fold change /veh ZSCAN30 (11745921_a_at) / RFU CMKLR1 (11741424_a_at) / Fold change /veh CMKLR1 (11741424_a_at) / RFU LOC101060620 /// MAPK8IP1 (11723275_at) / Fold change /veh LOC101060620 /// MAPK8IP1 (11723275_at) / RFU SPTSSB (11747773_x_at) / Fold change /veh SPTSSB (11747773_x_at) / RFU PRSS12 (11739890_at) / Fold change /veh PRSS12 (11739890_at) / RFU BIN1 (11741810_x_at) / Fold change /veh BIN1 (11741810_x_at) / RFU WNT11 (11732464_a_at) / Fold change /veh WNT11 (11732464_a_at) / RFU C10orf10 (11716521_a_at) / Fold change /veh C10orf10 (11716521_a_at) / RFU C5orf56 (11738089_at) / Fold change /veh C5orf56 (11738089_at) / RFU CYB561 (11721691_x_at) / Fold change /veh CYB561 (11721691_x_at) / RFU ANKRD19P (11752326_a_at) / Fold change /veh ANKRD19P (11752326_a_at) / RFU OR2T12 /// OR2T33 /// OR2T8 (11738714_s_at) / Fold change /veh OR2T12 /// OR2T33 /// OR2T8 (11738714_s_at) / RFU VCAN (11748164_a_at) / Fold change /veh VCAN (11748164_a_at) / RFU JSRP1 (11732532_at) / Fold change /veh JSRP1 (11732532_at) / RFU KRTAP10-11 (11738290_x_at) / Fold change /veh KRTAP10-11 (11738290_x_at) / RFU MYO3A (11730013_a_at) / Fold change /veh MYO3A (11730013_a_at) / RFU EBF3 (11725865_a_at) / Fold change /veh EBF3 (11725865_a_at) / RFU CAMK2N1 (11719241_x_at) / Fold change /veh CAMK2N1 (11719241_x_at) / RFU C5orf56 (11738088_a_at) / Fold change /veh C5orf56 (11738088_a_at) / RFU OLFML3 (11715873_a_at) / Fold change /veh OLFML3 (11715873_a_at) / RFU LOC100653217 /// NTM (11731650_a_at) / Fold change /veh LOC100653217 /// NTM (11731650_a_at) / RFU MAPK11 (11762145_a_at) / Fold change /veh MAPK11 (11762145_a_at) / RFU FIZ1 (11724087_x_at) / Fold change /veh FIZ1 (11724087_x_at) / RFU OASL (11726364_x_at) / Fold change /veh OASL (11726364_x_at) / RFU SOX15 (11748057_x_at) / Fold change /veh SOX15 (11748057_x_at) / RFU CD79A (11719716_a_at) / Fold change /veh CD79A (11719716_a_at) / RFU HIST1H1D (11736915_at) / Fold change /veh HIST1H1D (11736915_at) / RFU CASKIN2 (11723855_a_at) / Fold change /veh CASKIN2 (11723855_a_at) / RFU LOC730098 (11760151_x_at) / Fold change /veh LOC730098 (11760151_x_at) / RFU OR4N2 (11742367_at) / Fold change /veh OR4N2 (11742367_at) / RFU PRRT2 (11749266_a_at) / Fold change /veh PRRT2 (11749266_a_at) / RFU SNX32 (11753110_a_at) / Fold change /veh SNX32 (11753110_a_at) / RFU CDHR5 (11726645_a_at) / Fold change /veh CDHR5 (11726645_a_at) / RFU RCAN1 (11760418_a_at) / Fold change /veh RCAN1 (11760418_a_at) / RFU FAM167A (11723789_a_at) / Fold change /veh FAM167A (11723789_a_at) / RFU FAM26E (11764081_at) / Fold change /veh FAM26E (11764081_at) / RFU ISYNA1 (11749810_s_at) / Fold change /veh ISYNA1 (11749810_s_at) / RFU ACY1 (11761880_at) / Fold change /veh ACY1 (11761880_at) / RFU 11764098_at / Fold change /veh 11764098_at / RFU SAMD14 (11745864_x_at) / Fold change /veh SAMD14 (11745864_x_at) / RFU NPB (11741838_a_at) / Fold change /veh NPB (11741838_a_at) / RFU TMPRSS6 (11731388_a_at) / Fold change /veh TMPRSS6 (11731388_a_at) / RFU KRTAP10-2 (11738614_at) / Fold change /veh KRTAP10-2 (11738614_at) / RFU ARHGAP8 /// PRR5-ARHGAP8 (11727945_x_at) / Fold change /veh ARHGAP8 /// PRR5-ARHGAP8 (11727945_x_at) / RFU KRTAP5-7 /// NADSYN1 (11734609_at) / Fold change /veh KRTAP5-7 /// NADSYN1 (11734609_at) / RFU RASL12 (11751679_a_at) / Fold change /veh RASL12 (11751679_a_at) / RFU CDKN2B (11736163_a_at) / Fold change /veh CDKN2B (11736163_a_at) / RFU PRF1 (11729649_at) / Fold change /veh PRF1 (11729649_at) / RFU, ZNF638 /// ZNF638-IT1 / Fold change vs veh, ZNF638 /// ZNF638-IT1 / RFU, PANK3 / Fold change vs veh, PANK3 / RFU, SH3YL1 / Fold change vs veh, SH3YL1 / RFU, ZEB2 / Fold change vs veh, ZEB2 / RFU, NRIP1 / Fold change vs veh, NRIP1 / RFU, PTTG1IP / Fold change vs veh, PTTG1IP / RFU, CAPN2 / Fold change vs veh, CAPN2 / RFU, MED14 / Fold change vs veh, MED14 / RFU, SNORA58 / Fold change vs veh, SNORA58 / RFU, C1orf63 / Fold change vs veh, C1orf63 / RFU, LRRFIP1 / Fold change vs veh, LRRFIP1 / RFU, NDUFAF7 / Fold change vs veh, NDUFAF7 / RFU, SLC12A2 / Fold change vs veh, SLC12A2 / RFU, IBTK / Fold change vs veh, IBTK / RFU, ESF1 / Fold change vs veh, ESF1 / Fold change vs veh, TMEM50B / RFU, TAOK1 / Fold change vs veh, TAOK1 / RFU, ACBD3 / Fold change vs veh, ACBD3 / RFU, TMA16 / Fold change vs veh, TMA16 / RFU, RWDD3 / Fold change vs veh, RWDD3 / RFU, BCAT1 / Fold change vs veh, BCAT1 / RFU, EDEM3 / Fold change vs veh, EDEM3 / RFU, TMEM33 / Fold change vs veh, TMEM33 / RFU, WDR75 / Fold change vs veh, WDR75 / RFU, AHCTF1 / Fold change vs veh, AHCTF1 / RFU, TFRC / Fold change vs veh, TFRC / RFU, ZDHHC17 / Fold change vs veh, ZDHHC17 / RFU, NOM1 / Fold change vs veh, NOM1 / RFU, ARL8B / Fold change vs veh, ARL8B / RFU, ZBTB11 / Fold change vs veh, ZBTB11 / RFU, TAMM41 / Fold change vs veh, TAMM41 / RFU, KIAA1704 /// LOC100996395 / Fold change vs veh, KIAA1704 /// LOC100996395 / RFU, ING1 / Fold change vs veh, ING1 / RFU, TRMT61B / Fold change vs veh, TRMT61B / RFU, FUBP3 / Fold change vs veh, FUBP3 / RFU, TP53 / Fold change vs veh, TP53 / RFU, TNKS2 / Fold change vs veh, TNKS2 / RFU, ZFP14 / Fold change vs veh, ZFP14 / RFU, ACTR2 / Fold change vs veh, ACTR2 / RFU, PPP3R1 / Fold change vs veh, PPP3R1 / RFU, PIK3R1 / Fold change vs veh, PIK3R1 / RFU, HNRNPA1 / Fold change vs veh, HNRNPA1 / RFU, RNF170 / Fold change vs veh, RNF170 / RFU, ZNF28 / Fold change vs veh, ZNF28 / RFU, RNGTT / Fold change vs veh, RNGTT / RFU, OGT / Fold change vs veh, OGT / RFU, BRD1 / Fold change vs veh, BRD1 / RFU, MARS / Fold change vs veh, MARS / RFU, ZNF655 / Fold change vs veh, ZNF655 / RFU, FAHD1 / Fold change vs veh, FAHD1 / RFU, BDP1 / Fold change vs veh, BDP1 / RFU, LRRCC1 / Fold change vs veh, LRRCC1 / RFU, ARID1A / Fold change vs veh, ARID1A / RFU, ZNF146 / Fold change vs veh, ZNF146 / RFU, ZNF330 / Fold change vs veh, ZNF330 / RFU, GPN3 / Fold change vs veh, GPN3 / RFU, C9orf123 / Fold change vs veh, C9orf123 / RFU, N4BP2L2 / Fold change vs veh, N4BP2L2 / RFU, ARFIP1 / Fold change vs veh, ARFIP1 / RFU, FAM179B / Fold change vs veh, FAM179B / RFU, BCL10 / Fold change vs veh, BCL10 / RFU, UHRF1BP1L / Fold change vs veh, UHRF1BP1L / RFU, BET1 / Fold change vs veh, BET1 / RFU, CNOT2 / Fold change vs veh, CNOT2 / RFU, ZNF268 / Fold change vs veh, ZNF268 / Fold change vs veh, ZNF507 / RFU, DGCR2 / Fold change vs veh, DGCR2 / RFU, WDSUB1 / Fold change vs veh, WDSUB1 / Fold change vs veh, HSP90B1 /// MIR3652 / RFU, ADSS / Fold change vs veh, ADSS / RFU, GK / Fold change vs veh, GK / RFU, ZNF148 / Fold change vs veh, ZNF148 / RFU, TAF9 / Fold change vs veh, TAF9 / RFU, SLC1A5 / Fold change vs veh, SLC1A5 / RFU, SLMO2 / Fold change vs veh, SLMO2 / RFU, ABCC4 / Fold change vs veh, ABCC4 / RFU, LOC101060439 /// RAP1B / Fold change vs veh, LOC101060439 /// RAP1B / RFU, RFX7 / Fold change vs veh, RFX7 / RFU, GTPBP10 / Fold change vs veh, GTPBP10 / RFU, CNEP1R1 / Fold change vs veh, CNEP1R1 / RFU, BIVM-ERCC5 /// ERCC5 / Fold change vs veh, BIVM-ERCC5 /// ERCC5 / RFU, ILF3 / Fold change vs veh, ILF3 / RFU 11762660_at / Fold change /veh 11762660_at / RFU VCAN (11757783_s_at) / Fold change /veh VCAN (11757783_s_at) / RFU DDX43 (11728927_at) / Fold change /veh DDX43 (11728927_at) / RFU KRT8 (11758188_x_at) / Fold change /veh KRT8 (11758188_x_at) / RFU NKD1 (11759106_at) / Fold change /veh NKD1 (11759106_at) / RFU SRD5A1 (11742802_a_at) / Fold change /veh SRD5A1 (11742802_a_at) / RFU TPSAB1 /// TPSB2 (11721975_s_at) / Fold change /veh TPSAB1 /// TPSB2 (11721975_s_at) / RFU GSTM3 (11746129_a_at) / Fold change /veh GSTM3 (11746129_a_at) / RFU IL23R (11737362_x_at) / Fold change /veh IL23R (11737362_x_at) / RFU TMEM51 (11727254_a_at) / Fold change /veh TMEM51 (11727254_a_at) / RFU PIWIL2 (11732686_x_at) / Fold change /veh PIWIL2 (11732686_x_at) / RFU ORM1 (11744905_x_at) / Fold change /veh ORM1 (11744905_x_at) / RFU CCDC152 (11743942_at) / Fold change /veh CCDC152 (11743942_at) / RFU ECM1 (11717891_a_at) / Fold change /veh ECM1 (11717891_a_at) / RFU IL23R (11748794_a_at) / Fold change /veh IL23R (11748794_a_at) / RFU TNFAIP8L3 (11732012_x_at) / Fold change /veh TNFAIP8L3 (11732012_x_at) / RFU MBOAT4 (11741988_at) / Fold change /veh MBOAT4 (11741988_at) / RFU 11764193_at / Fold change /veh 11764193_at / RFU TMEM53 (11763286_at) / Fold change /veh TMEM53 (11763286_at) / RFU MAGEB2 (11727129_at) / Fold change /veh MAGEB2 (11727129_at) / RFU TMEM200A (11744735_a_at) / Fold change /veh TMEM200A (11744735_a_at) / RFU CCDC152 (11751479_a_at) / Fold change /veh CCDC152 (11751479_a_at) / RFU FAM211A (11726209_a_at) / Fold change /veh FAM211A (11726209_a_at) / RFU RGS16 (11746705_a_at) / Fold change /veh RGS16 (11746705_a_at) / RFU VCAN (11755009_s_at) / Fold change /veh VCAN (11755009_s_at) / RFU RHOB (11743442_s_at) / Fold change /veh RHOB (11743442_s_at) / RFU RGS16 (11720943_a_at) / Fold change /veh RGS16 (11720943_a_at) / RFU RGS16 (11720944_at) / Fold change /veh RGS16 (11720944_at) / RFU, VPS4B / Fold change vs veh, VPS4B / RFU, CREB1 / Fold change vs veh, CREB1 / RFU, DNAJC13 / Fold change vs veh, DNAJC13 / RFU, GNAQ / Fold change vs veh, GNAQ / RFU, CDK5R1 / Fold change vs veh, CDK5R1 / RFU, ZRANB3 / Fold change vs veh, ZRANB3 / RFU, CUL4A / Fold change vs veh, CUL4A / RFU, CCNY / Fold change vs veh, CCNY / RFU, UFL1 / Fold change vs veh, UFL1 / RFU, COG3 / Fold change vs veh, COG3 / RFU, DIAPH2 / Fold change vs veh, DIAPH2 / RFU, SKA2 / Fold change vs veh, SKA2 / RFU, AFF3 / Fold change vs veh, AFF3 / RFU, LMF1 / Fold change vs veh, LMF1 / RFU, IPO11 / Fold change vs veh, IPO11 / RFU, DFFB / Fold change vs veh, DFFB / RFU, FOXP1 / Fold change vs veh, FOXP1 / RFU, CARD8 / Fold change vs veh, CARD8 / RFU, STRN3 / Fold change vs veh, STRN3 / RFU, ADK / Fold change vs veh, ADK / RFU, RASSF2 / Fold change vs veh, RASSF2 / RFU, WIPF1 / Fold change vs veh, WIPF1 / RFU, LARP1B / Fold change vs veh, LARP1B / RFU, RASA1 / Fold change vs veh, RASA1 / RFU, RB1 / Fold change vs veh, RB1 / RFU, PPFIA1 / Fold change vs veh, PPFIA1 / RFU, MAT2A / Fold change vs veh, MAT2A / RFU, CCT5 / Fold change vs veh, CCT5 / RFU, WDR92 / Fold change vs veh, WDR92 / RFU, CUX1 / Fold change vs veh, CUX1 / RFU, TTC7A / Fold change vs veh, TTC7A / RFU, TMEM135 / Fold change vs veh, TMEM135 / RFU, DEPTOR / Fold change vs veh, DEPTOR / RFU, CPM / Fold change vs veh, CPM / RFU, DNAJB6 / Fold change vs veh, DNAJB6 / RFU, CACNA2D3 / Fold change vs veh, CACNA2D3 / RFU, DTX4 / Fold change vs veh, DTX4 / RFU, TFCP2 / Fold change vs veh, TFCP2 / RFU, GMCL1 /// GMCL1P1 / Fold change vs veh, GMCL1 /// GMCL1P1 / RFU, AEBP2 / Fold change vs veh, AEBP2 / RFU, SNHG1 /// SNORD22 /// SNORD25 /// SNORD26 /// SNORD27 /// SNORD28 /// SNORD29 /// SNORD31 / Fold change vs veh, SNHG1 /// SNORD22 /// SNORD25 /// SNORD26 /// SNORD27 /// SNORD28 /// SNORD29 /// SNORD31 / Fold change (Aza/veh), C12orf56 (ProbeSet 11735607_a_at) / Fold change (ACY-1035/veh), C12orf56 (ProbeSet 11735607_a_at) / Fold change (Aza/veh), FGFR1OP (ProbeSet 11751329_s_at) / Fold change (ACY-1035/veh), FGFR1OP (ProbeSet 11751329_s_at) / Fold change (Aza/veh), VPS36 (ProbeSet 11739960_a_at) / Fold change (ACY-1035/veh), VPS36 (ProbeSet 11739960_a_at) / RFU SYPL1 (11715823_x_at) / Fold change /veh SYPL1 (11715823_x_at) / RFU IGFBP7 (11715501_s_at) / Fold change /veh IGFBP7 (11715501_s_at) / RFU REEP3 (11722064_at) / Fold change /veh REEP3 (11722064_at) / RFU IGLL1 (11728026_x_at) / Fold change /veh IGLL1 (11728026_x_at): dose or concentration left out as unconfirmed
Conditions: ProbeSet 11717702_a_at; LIST D

Nc1ncn([C@@H]2O[C@H](CO)[C@@H](O)[C@H]2O)c(=O)n1 [azacitidine]
Fold change vs veh, RB1: 0.73
